In patent publication US5885834A, “Antisense oligodeoxynucleotide against phosphodiesterase” (priority 1997, dated 1999):

Test system: RPMI 8392 cells
Experiment: Apoptosis by endonuclease-digested DNA (DNA laddering) on agarose gels
Format: cell-based, human
Settings: RPMI 8392 cells
Description: The preferred method for testing the ability of AS ODN to induce apoptosis as determined by detection of endonuclease digested DNA on agarose gels employs the following sequence:
(2) Cells are grown to ≈10^6 /ml, collected by centrifugation for 5 min. at 300×g (1000 rpm in an IEC Model K centrifuge), resuspended in growth medium to 10^6 cells/ml, and placed in a 24 well tissue culture plate at 1 ml/well. The cell volumes are kept to a minimum (i.e., -1 ml), in order to reduce the amount of ODN needed. The fetal bovine serum used in the growth medium for this step is heat-inactivated at 65° C. for 1 hr. to minimize serum nuclease activity.
(4) Cells are then incubated for varying times, usually 1-3 days, following which the DNA is isolated.
The supernatant is aspirated down to ≈50 μl of volume and the cell pellet is resuspended in this remaining small volume.
(6) About 400 μl of cold cell lysis buffer (50 mM Tris-HCl, pH 7.5, 10 mM EDTA, 1% Triton X-100) is then added.
(9) The upper, aqueous phase is transferred to a fresh microfuge tube and 250 μl of phenol and 250 μl of chloroform are added, the mixture gently vortexed for 5 sec., and centrifuged at 16,650×g for 5 min.
(10) The upper, aqueous phase is again transferred to a fresh microfuge tube and 500 μl of chloroform is added, followed by gentle vortexing and centrifugation at 16,650×g for 3 min.
(11) The upper, aqueous phase is again transferred to a fresh microfuge tube, 3M sodium acetate (pH 5.2) is added to a final concentration of 0.3M, and 2.5 volumes of ice cold 100% ethanol is added. The solution is left overnight at -20° C. to precipitate the DNA.
(12) The DNA is collected by centrifugation at 16,650×g for 15 min., the supernatant decanted, and the pellet air dried for ≈30-60 min. at room temperature. The DNA pellet is then dissolved in 50 μl of pH 8.0 TE buffer at room temperature overnight.
(13) One μl of a 4 mg/ml solution of DNase-free RNase A is then added to the DNA and incubation is carried out at 37° C. for 30 min. This step is necessary to prevent contaminating RNA from obscuring the gel.
(14) Thirty μl of DNA solution is then mixed with 6 μl of 6× loading buffer and run on a 2% agarose gel, containing 0.5 μg/ml ethidium bromide, in 0.5× TBE buffer (45 mM Tris-borate, 1 mM EDTA, pH 8.0) at ≈50 V for ≈1.5 hr. The 6× loading buffer used is 0.25% xylene cyanol and 30% glycerol. The use of bromophenol blue is omitted for this analysis because it tends to obscure the visualization of the DNA ladder pattern.
(15) The gel is then visualized and photographed under UV light.
The effect of pharmacological inhibition of each of these PDE activities on induction of apoptosis in RPMI 8392 cells was tested, using the appearance of oligonucleosome length fragments of endonuclease digested DNA as a measure of apoptosis.
Markers (lane 1 in both gels) are 1 kb DNA ladder size markers from GIBCO/BRL.
Cells (10^6) were collected by centrifugation at 670×g for 5 min. The cell pellets were rinsed once with 0.2M dibasic sodium phosphate and lysed in 300 μl of lysis buffer (50 mM Tris/HCl pH 7.5, 10 mM EDTA, 1% V/V Triton X-100) for 20 min on ice. Proteinase K was added to 0.5 mg/ml and DNase-free RNase was added to 50 μg/ml and the extract incubated at 37° C. for 1 hr. DNA was then extracted in phenol/chloroform (1:1) and chloroform (1:1) and precipitated in 2.5 volumes of ethanol. The extracted DNA was electrophoresed on 2% agarose gels, the gels stained with 0.5 μg/ml ethidium bromide and photographed under UV light.
Experiments were conducted to determine if inhibition of the expression of the gene for PDE1B1 could induce apoptosis.

“5'-TACGTGAGGCACCTACGC-3' (phosphorothioate, further chemistry not given here) [NS ODN, control phosphorothioate nonsense ODN, same base composition as the AS ODN in random, scrambled order]” was tested, and the “Induction of apoptosis (DNA fragmentation)” value (“Induction of apoptosis” below) (30 μM ODN, 2 days (48 hr)) was “did not” and the “Induction of apoptosis” value (any concentration tested (0.3-30 μM), 1, 2 and 3 days) was “no effect”.

In the case of “5'-GGACAGCTCCATGCTCAG-3' (phosphorothioate, further chemistry not given here) [AS ODN, 18 nt phosphorothioate antisense oligodeoxynucleotide targeted against the translation initiation region of PDE1B1]”, the “Induction of apoptosis” value (10 μM ODN, 3 days) is reported as “induced apoptosis”, the “Induction of apoptosis” value (30 μM ODN, 2 days (48 hr)) is reported as “clearly induced apoptosis” and the “Induction of apoptosis” value (30 μM ODN, 3 days) is reported as “induced apoptosis”.
